Test results from patent US20230085307A1, “PYRIDAZINONE COMPOUND AND HERBICIDE” (NISSAN CHEMICAL CORPORATION, priority 2019, published 2023).

Key:
[1] = test system: barnyard grass; experiment: Test Example 3: herbicidal effect by foliage application, Wagner pot (Table 18, symbol H); assay type: in vivo, barnyard grass (Echinochloa crus-galli); settings: 320 g/ha
Method in brief: (§1)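 Plants were sown in alluvial soil held under 0.1–0.5 cm standing water and grown 14 days in a greenhouse at 25–30 °C. An emulsifiable formulation, water-diluted to the set dose, was then sprayed onto the foliage, and effects were scored three weeks later using previously defined criteria.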

[2] = test system: Chinese sprangletop; experiment: Test Example 3: herbicidal effect by foliage application, Wagner pot (Table 18, symbol D); assay type: in vivo, chinese sprangletop (Leptochloa chinensis); settings: 320 g/ha
Method in brief: as §1

[3] = test system: rice flat sedge; experiment: Test Example 3: herbicidal effect by foliage application, Wagner pot (Table 18, symbol E); assay type: in vivo, rice flat sedge (Cyperus iria); settings: 320 g/ha
Method in brief: as §1

[4] = test system: southern crabgrass; experiment: Test Example 4: herbicidal effect by soil treatment (Table 19, symbol F); assay type: in vivo, southern crabgrass (Digitaria ciliaris); settings: amount of applied herbicide 320 g/ha
Method in brief: (§2)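 Scoring uses the grading scale of an earlier test, three weeks post-application. Treatment consists of spraying a diluted emulsion formulation across the surface of sterilized diluvial soil in which seeds are buried near 1.5 cm deep; boxes are kept in a greenhouse between 25° C. and 30° C.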

[5] = test system: green foxtail; experiment: Test Example 4: herbicidal effect by soil treatment (Table 19, symbol G); assay type: in vivo, green foxtail (Setaria viridis); settings: amount of applied herbicide 320 g/ha
Method in brief: as §2

[6] = test system: barnyard grass; experiment: Test Example 4: herbicidal effect by soil treatment (Table 19, symbol H); assay type: in vivo, barnyard grass (Echinochloa crus-galli); settings: amount of applied herbicide 320 g/ha
Method in brief: as §2

[7] = test system: wild oat; experiment: Test Example 4: herbicidal effect by soil treatment (Table 19, symbol I); assay type: in vivo, wild oat (Avena fatua); settings: amount of applied herbicide 320 g/ha
Method in brief: as §2

[8] = test system: blackgrass; experiment: Test Example 4: herbicidal effect by soil treatment (Table 19, symbol J); assay type: in vivo, blackgrass (Alopecurus myosuroides); settings: amount of applied herbicide 320 g/ha
Method in brief: as §2

[9] = test system: Italian ryegrass; experiment: Test Example 4: herbicidal effect by soil treatment (Table 19, symbol K); assay type: in vivo, Italian ryegrass (Lolium multiflorum); settings: amount of applied herbicide 320 g/ha
Method in brief: as §2

[10] = test system: windgrass; experiment: Test Example 4: herbicidal effect by soil treatment (Table 19, symbol L); assay type: in vivo, windgrass (Apera spica-venti); settings: amount of applied herbicide 320 g/ha
Method in brief: as §2

[11] = test system: velvetleaf; experiment: Test Example 4: herbicidal effect by soil treatment (Table 19, symbol M); assay type: in vivo, velvetleaf (Abutilon theophrasti); settings: amount of applied herbicide 320 g/ha
Method in brief: as §2

[12] = test system: redroot pigweed; experiment: Test Example 4: herbicidal effect by soil treatment (Table 19, symbol N); assay type: in vivo, redroot pigweed (Amaranthus retroflexus); settings: amount of applied herbicide 320 g/ha
Method in brief: as §2

[13] = test system: lambsquarters; experiment: Test Example 4: herbicidal effect by soil treatment (Table 19, symbol O); assay type: in vivo, lambsquarters (Chenopodium album); settings: amount of applied herbicide 320 g/ha
Method in brief: as §2

[14] = test system: chickweed; experiment: Test Example 4: herbicidal effect by soil treatment (Table 19, symbol P); assay type: in vivo, common chickweed (Stellaria media); settings: amount of applied herbicide 320 g/ha
Method in brief: as §2

[15] = test system: persian speedwell; experiment: Test Example 4: herbicidal effect by soil treatment (Table 19, symbol R); assay type: in vivo, Persian speedwell (Veronica persica); settings: amount of applied herbicide 320 g/ha
Method in brief: as §2

[16] = test system: southern crabgrass; experiment: Test Example 5: herbicidal effect by foliage application, plastic box (Table 20, symbol F); assay type: in vivo, southern crabgrass (Digitaria ciliaris); settings: amount of applied herbicide 320 g/ha; foliage application after 14-day growth; evaluated three weeks after application
Method in brief: (§3)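 Post-emergence foliar test in sterilized diluvial soil. Compound applied as water-diluted emulsion at a predetermined rate to 14-day-old plants; evaluation at three weeks.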

[17] = test system: green foxtail; experiment: Test Example 5: herbicidal effect by foliage application, plastic box (Table 20, symbol G); assay type: in vivo, green foxtail (Setaria viridis); settings: amount of applied herbicide 320 g/ha; foliage application after 14-day growth; evaluated three weeks after application
Method in brief: as §3

[18] = test system: barnyard grass; experiment: Test Example 5: herbicidal effect by foliage application, plastic box (Table 20, symbol H); assay type: in vivo, barnyard grass (Echinochloa crus-galli); settings: amount of applied herbicide 320 g/ha; foliage application after 14-day growth; evaluated three weeks after application
Method in brief: as §3

[19] = test system: wild oat; experiment: Test Example 5: herbicidal effect by foliage application, plastic box (Table 20, symbol I); assay type: in vivo, wild oat (Avena fatua); settings: amount of applied herbicide 320 g/ha; foliage application after 14-day growth; evaluated three weeks after application
Method in brief: as §3

[20] = test system: blackgrass; experiment: Test Example 5: herbicidal effect by foliage application, plastic box (Table 20, symbol J); assay type: in vivo, blackgrass (Alopecurus myosuroides); settings: amount of applied herbicide 320 g/ha; foliage application after 14-day growth; evaluated three weeks after application
Method in brief: as §3

[21] = test system: Italian ryegrass; experiment: Test Example 5: herbicidal effect by foliage application, plastic box (Table 20, symbol K); assay type: in vivo, Italian ryegrass (Lolium multiflorum); settings: amount of applied herbicide 320 g/ha; foliage application after 14-day growth; evaluated three weeks after application
Method in brief: as §3

[22] = test system: windgrass; experiment: Test Example 5: herbicidal effect by foliage application, plastic box (Table 20, symbol L); assay type: in vivo, windgrass (Apera spica-venti); settings: amount of applied herbicide 320 g/ha; foliage application after 14-day growth; evaluated three weeks after application
Method in brief: as §3

[23] = test system: velvetleaf; experiment: Test Example 5: herbicidal effect by foliage application, plastic box (Table 20, symbol M); assay type: in vivo, velvetleaf (Abutilon theophrasti); settings: amount of applied herbicide 320 g/ha; foliage application after 14-day growth; evaluated three weeks after application
Method in brief: as §3

[24] = test system: redroot pigweed; experiment: Test Example 5: herbicidal effect by foliage application, plastic box (Table 20, symbol N); assay type: in vivo, redroot pigweed (Amaranthus retroflexus); settings: amount of applied herbicide 320 g/ha; foliage application after 14-day growth; evaluated three weeks after application
Method in brief: as §3

[25] = test system: lambsquarters; experiment: Test Example 5: herbicidal effect by foliage application, plastic box (Table 20, symbol O); assay type: in vivo, lambsquarters (Chenopodium album); settings: amount of applied herbicide 320 g/ha; foliage application after 14-day growth; evaluated three weeks after application
Method in brief: as §3

[26] = test system: chickweed; experiment: Test Example 5: herbicidal effect by foliage application, plastic box (Table 20, symbol P); assay type: in vivo, common chickweed (Stellaria media); settings: amount of applied herbicide 320 g/ha; foliage application after 14-day growth; evaluated three weeks after application
Method in brief: as §3

[27] = test system: persian speedwell; experiment: Test Example 5: herbicidal effect by foliage application, plastic box (Table 20, symbol R); assay type: in vivo, Persian speedwell (Veronica persica); settings: amount of applied herbicide 320 g/ha; foliage application after 14-day growth; evaluated three weeks after application
Method in brief: as §3

Row | SMILES | herbicidal effect on barnyard grass (H) [1] | herbicidal effect on Chinese sprangletop (D) [2] | herbicidal effect on rice flat sedge (E) [3] | F: southern crabgrass, herbicidal effect grade [4] | G: green foxtail, herbicidal effect grade [5] | H: barnyard grass, herbicidal effect grade [6] | I: wild oat, herbicidal effect grade [7] | J: blackgrass, herbicidal effect grade [8] | K: Italian ryegrass, herbicidal effect grade [9] | L: windgrass, herbicidal effect grade [10] | M: velvetleaf, herbicidal effect grade [11] | N: redroot pigweed, herbicidal effect grade [12] | O: lambsquarters, herbicidal effect grade [13] | P: chickweed, herbicidal effect grade [14] | R: persian speedwell, herbicidal effect grade [15] | Herbicidal effect by foliage application, F: southern crabgrass [16] | Herbicidal effect by foliage application, G: green foxtail [17] | Herbicidal effect by foliage application, H: barnyard grass [18] | Herbicidal effect by foliage application, I: wild oat [19] | Herbicidal effect by foliage application, J: blackgrass [20] | other results
1 | COc1ccc(-c2sc3cc(F)c(F)cc3c2-c2c(O)c(C)nn(C)c2=O)cc1OC [5-033] | 4 (Herbicidal rate of 70% or more and less than 90%) | 3 (Herbicidal rate of 40% or more and less than 70%) | 4 (Herbicidal rate of 70% or more and less than 90%) | 3 (Herbicidal rate of 40% or more and less than 70%) | 3 (Herbicidal rate of 40% or more and less than 70%) | 3 (Herbicidal rate of 40% or more and less than 70%) | 0 (Herbicidal rate of 5% or less (almost no effect)) | 0 (Herbicidal rate of 5% or less (almost no effect)) | 0 (Herbicidal rate of 5% or less (almost no effect)) | 0 (Herbicidal rate of 5% or less (almost no effect)) | 0 (Herbicidal rate of 5% or less (almost no effect)) | 3 (Herbicidal rate of 40% or more and less than 70%) | 4 (Herbicidal rate of 70% or more and less than 90%) | 1 (Herbicidal rate of 5% or more and less than 20%) | 0 (Herbicidal rate of 5% or less (almost no effect)) | 1 (Herbicidal rate of 5% or more and less than 20%) | 4 (Herbicidal rate of 70% or more and less than 90%) | 3 (Herbicidal rate of 40% or more and less than 70%) | 0 (Herbicidal rate of 5% or less (almost no effect)) | 0 (Herbicidal rate of 5% or less (almost no effect)) | Herbicidal effect by foliage application, K: Italian ryegrass [21]: 4 (Herbicidal rate of 70% or more and less than 90%); Herbicidal effect by foliage application, L: windgrass [22]: 0 (Herbicidal rate of 5% or less (almost no effect)); Herbicidal effect by foliage application, M: velvetleaf [23]: 4 (Herbicidal rate of 70% or more and less than 90%); Herbicidal effect by foliage application, N: redroot pigweed [24]: 3 (Herbicidal rate of 40% or more and less than 70%); Herbicidal effect by foliage application, O: lambsquarters [25]: 4 (Herbicidal rate of 70% or more and less than 90%); Herbicidal effect by foliage application, P: chickweed [26]: 5 (Herbicidal rate of 90% or more (almost completely withered)); Herbicidal effect by foliage application, R: persian speedwell [27]: 5 (Herbicidal rate of 90% or more (almost completely withered))
2 | CCCC(=O)Oc1c(C)nn(C)c(=O)c1-c1c(-c2ccc(F)cc2)sc2cc(Cl)c(Cl)cc12 [5-040] | 4 (Herbicidal rate of 70% or more and less than 90%) | 1 (Herbicidal rate of 5% or more and less than 20%) | 0 (Herbicidal rate of 5% or less (almost no effect)) | 0 (Herbicidal rate of 5% or less (almost no effect)) | 3 (Herbicidal rate of 40% or more and less than 70%) | 0 (Herbicidal rate of 5% or less (almost no effect)) | 0 (Herbicidal rate of 5% or less (almost no effect)) | 0 (Herbicidal rate of 5% or less (almost no effect)) | 0 (Herbicidal rate of 5% or less (almost no effect)) | 0 (Herbicidal rate of 5% or less (almost no effect)) | 2 (Herbicidal rate of 20% or more and less than 40%) | 4 (Herbicidal rate of 70% or more and less than 90%) | 0 (Herbicidal rate of 5% or less (almost no effect)) | 0 (Herbicidal rate of 5% or less (almost no effect)) | 0 (Herbicidal rate of 5% or less (almost no effect)) | 0 (Herbicidal rate of 5% or less (almost no effect)) | 1 (Herbicidal rate of 5% or more and less than 20%) | 2 (Herbicidal rate of 20% or more and less than 40%) | 3 (Herbicidal rate of 40% or more and less than 70%) | 0 (Herbicidal rate of 5% or less (almost no effect)) | Herbicidal effect by foliage application, K: Italian ryegrass [21]: 0 (Herbicidal rate of 5% or less (almost no effect)); Herbicidal effect by foliage application, L: windgrass [22]: 3 (Herbicidal rate of 40% or more and less than 70%); Herbicidal effect by foliage application, M: velvetleaf [23]: 1 (Herbicidal rate of 5% or more and less than 20%); Herbicidal effect by foliage application, N: redroot pigweed [24]: 3 (Herbicidal rate of 40% or more and less than 70%); Herbicidal effect by foliage application, O: lambsquarters [25]: 3 (Herbicidal rate of 40% or more and less than 70%); Herbicidal effect by foliage application, P: chickweed [26]: 5 (Herbicidal rate of 90% or more (almost completely withered)); Herbicidal effect by foliage application, R: persian speedwell [27]: 4 (Herbicidal rate of 70% or more and less than 90%)
3 | CCCC(=O)Oc1c(C)nn(C)c(=O)c1-c1c(-c2ccccc2OC)sc2cc(Cl)c(Cl)cc12 [5-042] | 5 (Herbicidal rate of 90% or more (almost completely withered)) | 2 (Herbicidal rate of 20% or more and less than 40%) | 4 (Herbicidal rate of 70% or more and less than 90%) | 0 (Herbicidal rate of 5% or less (almost no effect)) | 0 (Herbicidal rate of 5% or less (almost no effect)) | 0 (Herbicidal rate of 5% or less (almost no effect)) | 0 (Herbicidal rate of 5% or less (almost no effect)) | 0 (Herbicidal rate of 5% or less (almost no effect)) | 0 (Herbicidal rate of 5% or less (almost no effect)) | 0 (Herbicidal rate of 5% or less (almost no effect)) | 0 (Herbicidal rate of 5% or less (almost no effect)) | 3 (Herbicidal rate of 40% or more and less than 70%) | 1 (Herbicidal rate of 5% or more and less than 20%) | 3 (Herbicidal rate of 40% or more and less than 70%) | 0 (Herbicidal rate of 5% or less (almost no effect)) | 0 (Herbicidal rate of 5% or less (almost no effect)) | 4 (Herbicidal rate of 70% or more and less than 90%) | 4 (Herbicidal rate of 70% or more and less than 90%) | 0 (Herbicidal rate of 5% or less (almost no effect)) | 0 (Herbicidal rate of 5% or less (almost no effect)) | Herbicidal effect by foliage application, K: Italian ryegrass [21]: 0 (Herbicidal rate of 5% or less (almost no effect)); Herbicidal effect by foliage application, L: windgrass [22]: 0 (Herbicidal rate of 5% or less (almost no effect)); Herbicidal effect by foliage application, M: velvetleaf [23]: 5 (Herbicidal rate of 90% or more (almost completely withered)); Herbicidal effect by foliage application, N: redroot pigweed [24]: 4 (Herbicidal rate of 70% or more and less than 90%); Herbicidal effect by foliage application, O: lambsquarters [25]: 5 (Herbicidal rate of 90% or more (almost completely withered)); Herbicidal effect by foliage application, P: chickweed [26]: 4 (Herbicidal rate of 70% or more and less than 90%); Herbicidal effect by foliage application, R: persian speedwell [27]: 4 (Herbicidal rate of 70% or more and less than 90%)
